According to the CheMixHub viscosity set:

Test: xn = mol fraction of the nth substance listed

CC(C)NC(C)C + CC(C)CO
viscosity [mPa·s], 100 kPa
Conditions | 298.15 K | 303.15 K | 308.15 K
x1 = 0.0559 | 2.916 | 2.467 | 2.005
x1 = 0.1015 | 2.616 | 2.232 | 1.833
x1 = 0.1519 | 2.295 | 1.98 | 1.662
x1 = 0.2069 | 1.995 | 1.738 | 1.459
x1 = 0.2516 | 1.765 | 1.549 | 1.319
x1 = 0.3055 | 1.507 | 1.346 | 1.155
x1 = 0.3944 | 1.194 | 1.067 | 0.931
x1 = 0.4988 | 0.926 | 0.837 | 0.743
x1 = 0.6017 | 0.73 | 0.674 | 0.607
x1 = 0.7131 | 0.586 | 0.553 | 0.509
x1 = 0.8018 | 0.504 | 0.485 | 0.448
x1 = 0.865 | 0.455 | 0.441 | 0.409
x1 = 0.9062 | 0.433 | 0.419 | 0.395
x1 = 0.9423 | 0.409 | 0.396 | 0.379

CC(C)NC(C)C + CC(C)O
viscosity [mPa·s], 100 kPa
Conditions | 298.15 K | 303.15 K | 308.15 K
x1 = 0.0499 | 1.789 | 1.565 | 1.397
x1 = 0.1033 | 1.565 | 1.393 | 1.253
x1 = 0.1405 | 1.437 | 1.28 | 1.153
x1 = 0.2062 | 1.245 | 1.108 | 1.004
x1 = 0.2498 | 1.123 | 1.012 | 0.922
x1 = 0.303 | 1.003 | 0.904 | 0.825
x1 = 0.4121 | 0.809 | 0.735 | 0.677
x1 = 0.4955 | 0.698 | 0.639 | 0.593
x1 = 0.5984 | 0.592 | 0.551 | 0.513
x1 = 0.6974 | 0.52 | 0.498 | 0.466
x1 = 0.7902 | 0.468 | 0.447 | 0.421
x1 = 0.8632 | 0.434 | 0.419 | 0.398
x1 = 0.9067 | 0.412 | 0.401 | 0.382
x1 = 0.9459 | 0.397 | 0.388 | 0.3694

NCc1ccccc1 + CCC(C)(C)O
viscosity [mPa·s], 101.33 kPa
Conditions | x1 = 0.1 | x1 = 0.2001 | x1 = 0.3 | x1 = 0.4 | x1 = 0.5 | x1 = 0.6 | x1 = 0.6999 | x1 = 0.7994 | x1 = 0.8998
298.15 K | 3.228 | 2.988 | 2.781 | 2.576 | 2.394 | 2.223 | 2.067 | 1.927 | 1.792
303.15 K | 2.641 | 2.463 | 2.289 | 2.143 | 1.995 | 1.882 | 1.773 | 1.668 | 1.578
308.15 K | 2.193 | 2.043 | 1.919 | 1.793 | 1.696 | 1.609 | 1.533 | 1.468 | 1.422

NCc1ccccc1 + CCC(C)CO
viscosity [mPa·s], 101.33 kPa
Conditions | x1 = 0.1 | x1 = 0.2 | x1 = 0.3001 | x1 = 0.3999 | x1 = 0.5 | x1 = 0.6 | x1 = 0.6998 | x1 = 0.7989 | x1 = 0.8999
298.15 K | 4.232 | 3.772 | 3.382 | 3.039 | 2.708 | 2.435 | 2.181 | 1.984 | 1.796
303.15 K | 3.472 | 3.103 | 2.773 | 2.478 | 2.243 | 2.048 | 1.849 | 1.691 | 1.572
308.15 K | 2.453 | 2.227 | 2.02 | 1.837 | 1.711 | 1.595 | 1.5 | 1.423 | 1.377

NCc1ccccc1 + CCCC(C)O
viscosity [mPa·s], 101.33 kPa
Conditions | x1 = 0.1 | x1 = 0.2002 | x1 = 0.3001 | x1 = 0.4001 | x1 = 0.4997 | x1 = 0.6 | x1 = 0.6989 | x1 = 0.8 | x1 = 0.8998
298.15 K | 3.179 | 2.906 | 2.676 | 2.466 | 2.274 | 2.11 | 1.976 | 1.854 | 1.75
303.15 K | 2.626 | 2.395 | 2.192 | 2.038 | 1.893 | 1.765 | 1.666 | 1.587 | 1.532
308.15 K | 2.199 | 2.034 | 1.884 | 1.759 | 1.642 | 1.559 | 1.482 | 1.436 | 1.401

CCOC(=O)CCBr + CCCCCC
303.15 K, 101 kPa
Conditions | viscosity [mPa·s]
x1 = 0.2142 | 0.3919
x1 = 0.4043 | 0.55
x1 = 0.5019 | 0.674
x1 = 0.6029 | 0.8315
x1 = 0.8046 | 1.263

CCCCCCCCCCCCCCCCCC + CCCCCCC
101 kPa, x2 = 0.5
Conditions | viscosity [mPa·s]
298 K | 1.73
318 K | 1.241

CCCCCCCCCc1ccccc1 + CCCCCCC
313.15 K, 100 kPa
Conditions | viscosity [mPa·s]
x2 = 0.097 | 1.82
x2 = 0.265 | 1.398
x2 = 0.405 | 1.111
x2 = 0.523 | 0.918
x2 = 0.671 | 0.691
x2 = 0.754 | 0.59
x2 = 0.86 | 0.411

CCCCCCCCCc1ccccc1 + CCCCCCCCCCCC
viscosity [mPa·s], 102 kPa
Conditions | x1 = 0.1006 | x1 = 0.2 | x1 = 0.3002 | x1 = 0.4001 | x1 = 0.5 | x1 = 0.5999 | x1 = 0.7004 | x1 = 0.8064 | x1 = 0.8998
293.15 K | 1.59 | 1.69 | 1.81 | 1.94 | 2.09 | 2.25 | 2.44 | 2.66 | 2.88
303.15 K | 1.33 | 1.41 | 1.5 | 1.61 | 1.72 | 1.84 | 1.99 | 2.15 | 2.31
313.15 K | 1.13 | 1.2 | 1.27 | 1.35 | 1.44 | 1.54 | 1.65 | 1.78 | 1.9
323.15 K | 0.971 | 1.03 | 1.09 | 1.16 | 1.23 | 1.31 | 1.4 | 1.5 | 1.59
